The values below come from patent US10265327B2, “V1A antagonists to treat phase shift sleep disorders” (Hoffmann-La Roche Inc., priority 2013, dated 2019).

Each structure is given as a SMILES string.

The assay relates to C57BL/6J mice. In words: Behavioural circadian responses (phase shift, period, alpha, locomotor activity) after single oral administration, release into constant darkness. The assay is classed as in vivo, mouse. As for the experimental part:
In all studies described below, male young-adult C57BL/6J mice (4 weeks old at the beginning of experiments) were used. Animals were exposed to a light-dark cycle (LD) 12:12 (lights on from 8 h to 20 h geographical time; light intensity at 200 lux; during dark period dim red light of 5 lux) in individual cages with food and water ad libitum and temperature (22±1° C.) and humidity (55%±5%) controlled. LD cycle was represented as zeitgeber times (ZT) where ZT0 represents the lights on and ZT12 lights off. When animals were exposed to constant darkness conditions (DD), circadian times (CT) were used as time point references, where CT12 corresponds to activity onset.
It was evaluated whether there is a phase window of sensitivity to the V1a receptor antagonist trans-8-chloro-5-methyl-1-(4-pyridin-2-yloxycyclohexyl)-4,6-dihydro-[1,2,4]triazolo[4,3-a][1,4]benzodiazepine (example 1). A group of animals was treated at 2 temporal points (one during the day and one at night). Animals were exposed to LD cycle conditions (at least for 10 days) to obtain a baseline of the rhythm of locomotor activity. 4 groups were selected: (group 1) Sham manipulations, animals into which the cannula was introduced in the oral cavity without any solution delivery; (group 2) vehicle, and […] administration of the V1a receptor antagonist trans-8-chloro-5-methyl-1-(4-pyridin-2-yloxycyclohexyl)-4,6-dihydro-[1,2,4]triazolo[4,3-a][1,4]benzodiazepine (doses of 10 mg/kg and 30 mg/kg). Administrations were performed (orally) at ZT/CT12 (lights off/activity onset; sham, n=5; vehicle n=5; 10 mg/kg n=5; and 30 mg/kg n=5). After the first manipulation at ZT/CT12, animals were immediately exposed to DD conditions and remained at least for 10 days more for behavioural analysis, and then re-entrained to a 12-12 LD cycle, for a minimum of 10 days, to be re-exposed to the second experimental manipulation at ZT/CT0 (lights on/activity offset; sham, n=3; vehicle n=3; 10 mg/kg n=5; and 30 mg/kg n=5).
A new group of animals was treated at another 2 temporal points different from the previous experiment; ZT/CT6 (6 h after lights on/mid rest period; sham, n=3; vehicle n=4; and 30 mg/kg n=5) and ZT/CT18 (6 h after lights off/mid activity period; sham, n=3; vehicle n=4; and 30 mg/kg n=5). For this experiment (time points ZT/CT6 and ZT/CT18), trans-8-chloro-5-methyl-1-(4-pyridin-2-yloxycyclohexyl)-4,6-dihydro-[1,2,4]triazolo[4,3-a][1,4]benzodiazepine was administrated only at the 30 mg/kg dose. Thus, 3 groups were selected: (Group 1) Sham manipulations, (Group 2) vehicle administrations and (Group 3) trans-8-chloro-5-methyl-1-(4-pyridin-2-yloxycyclohexyl)-4,6-dihydro-[1,2,4]triazolo[4,3-a][1,4]benzodiazepine (30 mg/kg). After manipulations, animals were immediately exposed to DD conditions and remained at least for 10 days more for behavioural analysis, and then re-entrained to a 12-12 LD cycle for a minimum of 10 days.
The locomotor activity rhythms were measured using infra-red detectors on the top of the cages and/or running wheels.
Phase shifts: Phase shifts were measured by fitting two regression lines to the onsets of locomotor activity for 10 days before and 10 days after the manipulation (ClockLab; Actimetrics, Evanston, Ill., USA). A computer algorithm was used to identify the onset of the main period of daily locomotor activity (ClockLab). The data collected on the day following the manipulation (sham, vehicle or drug administration) was excluded from the line fits to ensure that the circadian phase was in steady state. Phase shift was defined as the difference (in hours) between the pre-stimulus line and the post-stimulus line. The magnitude of the phase shifts was fitted by linear regression to the onsets, considering 10 cycles before (LD) and 10 cycles after compound administration when animals were released in constant darkness (DD; Aschoff Type II procedure to evaluate phase shifts; Mrosovsky, 1996b). […]

With `CN1Cc2cc(Cl)ccc2-n2c(nnc2[C@H]2CC[C@H](Oc3ccccn3)CC2)C1` [Example 1, trans-8-chloro-5-methyl-1-(4-pyridin-2-yloxycyclohexyl)-4,6-dihydro-[1,2,4]triazolo[4,3-a][1,4]benzodiazepine], for the setting “10 mg/kg or 30 mg/kg oral, ZT/CT12 and ZT/CT0”, the “locomotor activity change after administration” value is “No significant locomotor activity change”. The “endogenous period of locomotor activity” value (10 mg/kg or 30 mg/kg oral, ZT/CT12 and ZT/CT0, constant darkness) is “no changes”. The “endogenous period of locomotion” value (30 mg/kg oral, ZT/CT18 and ZT/CT6) is “not significantly different between groups”. Moreover, the “alpha (duration of active period), difference between groups” value was “no differences between groups were observed” (30 mg/kg oral, ZT/CT18 or ZT/CT6); “no differences between groups were observed” (treated at ZT/CT12, 10 and 30 mg/kg oral). Moreover, the “behavioural phase shifts (circadian phase)” value (single administration 30 mg/kg oral, at ZT/CT18 and ZT/CT6) is “no significant effect on the circadian phase”. Also, for the setting “single oral administration, 10 mg/kg or 30 mg/kg, at ZT/CT12 and ZT/CT0”, the “behavioural phase-shifts (circadian phase)” value is “no effect on the circadian phase”. For the same molecule, the “alpha increase (pre vs. post)” value (treated at ZT/CT0, 10 and 30 mg/kg oral, effect vs groups not statistically significant) is on record as around 2 h.
